Laboratory results: article PMC7011996 (Journal of Enzyme Inhibition and Medicinal Chemistry, 2017)

Biological target: T1, hCA XII (Homo sapiens, UniProt O43570)
T1 construct: gene CA12
Experiment: stopped-flow CO2 hydration assay
Type: biochemical

T1 sequence (O43570 25-354): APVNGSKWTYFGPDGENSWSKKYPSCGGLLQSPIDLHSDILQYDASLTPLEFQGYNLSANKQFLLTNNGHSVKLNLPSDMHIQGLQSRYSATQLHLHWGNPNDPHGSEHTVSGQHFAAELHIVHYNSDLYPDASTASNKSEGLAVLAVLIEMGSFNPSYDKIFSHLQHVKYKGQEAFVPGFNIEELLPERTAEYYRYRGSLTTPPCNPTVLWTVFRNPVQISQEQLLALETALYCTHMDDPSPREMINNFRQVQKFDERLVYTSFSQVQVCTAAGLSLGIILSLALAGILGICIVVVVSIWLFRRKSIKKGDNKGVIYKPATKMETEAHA

Ki: 12.5 nM
SMILES: NS(=O)(=O)c1ccc(CC[n+]2c(-c3ccccc3)cc(-c3ccccc3)cc2-c2ccccc2)cc1 [compound 2, 1-(4-sulfamoylphenyl-ethyl)-2,4,6-triphenylpyridinium perchlorate]
